PubChem BioAssay AID248 (DTP/NCI, 2004)
Several values for one entry are separate records, joined by “and”; a condition that tells them apart may be missing. Equal entries are not always repeated. Inconclusive results and toxic doses are left out. Rule as the data show it: active = T/C of 150% or more; inactive = T/C below 125%.

Tested on: L1210 leukemia ip in BDF1 mice, survival T/C
Assay: NCI In Vivo Anticancer Drug Screen. Data for tumor model L1210 Leukemia (intraperitoneal) in B6D2F1 (BDF1) mice
Conditions: endpoint: mean survival time, higher = longer survival
Procedure, shortened: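 Tumor cells were implanted, animals were treated, and survival was followed. The result divides the treated measurement by the vehicle-control measurement.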

[1] = dose: 100.0 mg/kg/injection, schedule: Q01DX001 (ip), vehicle: carboxymethylcellulose (CMC)
[2] = dose: 100.0 mg/kg/injection, schedule: Q01DX009 (ip), vehicle: saline
[3] = dose: 200.0 mg/kg/injection, schedule: Q01DX001 (ip), vehicle: carboxymethylcellulose (CMC)
[4] = dose: 200.0 mg/kg/injection, schedule: Q01DX009 (ip), vehicle: saline
[5] = dose: 400.0 mg/kg/injection, schedule: Q01DX001 (ip), vehicle: carboxymethylcellulose (CMC)
[6] = dose: 100.0 mg/kg/injection, schedule: Q01DX009 (ip), vehicle: Klucel (hydroxypropylcellulose) (HPC)
[7] = dose: 100.0 mg/kg/injection, schedule: Q04DX003 (ip), vehicle: Klucel (hydroxypropylcellulose) (HPC)
[8] = dose: 200.0 mg/kg/injection, schedule: Q04DX003 (ip), vehicle: Klucel (hydroxypropylcellulose) (HPC)
[9] = dose: 400.0 mg/kg/injection, schedule: Q04DX003 (ip), vehicle: Klucel (hydroxypropylcellulose) (HPC)
[10] = dose: 50.0 mg/kg/injection, schedule: Q01DX009 (ip), vehicle: saline
[11] = dose: 50.0 mg/kg/injection, schedule: Q04DX003 (ip), vehicle: Klucel (hydroxypropylcellulose) (HPC)

Measured: T/C

Nc1cccc2cccc([N+](=O)[O-])c12
inactive: [1] 100 % of control | [2] 87 % of control | [3] 94 % of control | [4] 94 % of control | [5] 96 % of control

COC(=O)C(N)CO (centres undefined)
inactive: dose: 100.0 mg/kg/injection, schedule: Q04DX003 (ip), vehicle: saline with Tween-80 105 % of control | dose: 200.0 mg/kg/injection, schedule: Q04DX003 (ip), vehicle: saline with Tween-80 105 % of control | dose: 400.0 mg/kg/injection, schedule: Q04DX003 (ip), vehicle: saline with Tween-80 91 % of control

CC(=O)c1cc(-c2ccccc2)nc2c(C)c(Cl)ccc12
inactive: [1] 90 % of control | [3] 92 % of control | [5] 90 % of control

Cc1c(NC=O)c(=O)n(-c2ccccc2)n1C
inactive: [6] 92 % of control | [7] 107 % of control | dose: 200.0 mg/kg/injection, schedule: Q01DX009 (ip), vehicle: Klucel (hydroxypropylcellulose) (HPC) 93 % of control | [8] 100 % of control | dose: 400.0 mg/kg/injection, schedule: Q01DX009 (ip), vehicle: Klucel (hydroxypropylcellulose) (HPC) 100 % of control | [9] 105 % of control

NC(=O)c1[nH]cnc1[N+]1=NN(c2ccccc2)CC1
inactive: [10] 102 % of control | [2] 94 % of control | [4] 102 % of control

O=c1cc(C2CCCCC2)[nH]c(=S)[nH]1
inactive: dose: 50.0 mg/kg/injection, schedule: Q01DX001 (ip), vehicle: carboxymethylcellulose (CMC) 101 % of control | [1] 92 % of control | [3] 86 % of control | [5] 90 % of control

Cn1ncc2ccccc2c1=O
inactive: [11] 100 % of control | [7] 100 % of control | [8] 106 % of control | [9] 110 % of control

O=Cc1c[nH]c2nccnc12
inactive: [2] 94 % of control | dose: 100.0 mg/kg/injection, schedule: Q04DX003 (ip), vehicle: saline 96 % of control | [4] 97 % of control | dose: 200.0 mg/kg/injection, schedule: Q04DX003 (ip), vehicle: saline 93 % of control | dose: 400.0 mg/kg/injection, schedule: Q01DX009 (ip), vehicle: saline 100 % of control | dose: 400.0 mg/kg/injection, schedule: Q04DX003 (ip), vehicle: saline 93 % of control

OCC1OCC(O)C(O)C1O (centres undefined)
inactive: [10] 94 % of control | [2] 91 % of control | [4] 88 % of control

CSCCC(O)C(=O)O (centres undefined)
inactive: dose: 100.0 mg/kg/injection, schedule: Q01DX001 (ip), vehicle: saline 101 % of control | dose: 200.0 mg/kg/injection, schedule: Q01DX001 (ip), vehicle: saline 95 % of control | dose: 400.0 mg/kg/injection, schedule: Q01DX001 (ip), vehicle: saline 101 % of control

CC(C)S(=O)(=O)/C(Cl)=C(/Cl)C(Cl)=C(Cl)Cl
inactive: dose: 12.5 mg/kg/injection, schedule: Q01DX009 (ip), vehicle: Klucel (hydroxypropylcellulose) (HPC) 106 % of control | dose: 25.0 mg/kg/injection, schedule: Q01DX009 (ip), vehicle: Klucel (hydroxypropylcellulose) (HPC) 101 % of control | dose: 50.0 mg/kg/injection, schedule: Q01DX009 (ip), vehicle: Klucel (hydroxypropylcellulose) (HPC) 95 % of control | [6] 87 % of control

CC([NH-])C[NH-].[Cl][Pd][Cl] (centres undefined)
inactive: dose: 6.25 mg/kg/injection, schedule: Q04DX002 (ip), vehicle: Klucel (hydroxypropylcellulose) (HPC) 93 % of control | dose: 12.5 mg/kg/injection, schedule: Q04DX002 (ip), vehicle: Klucel (hydroxypropylcellulose) (HPC) 102 % of control and 93 % of control | dose: 12.5 mg/kg/injection, schedule: Q04DX003 (ip), vehicle: Klucel (hydroxypropylcellulose) (HPC) 96 % of control | dose: 25.0 mg/kg/injection, schedule: Q04DX002 (ip), vehicle: Klucel (hydroxypropylcellulose) (HPC) 90 % of control | dose: 25.0 mg/kg/injection, schedule: Q04DX003 (ip), vehicle: Klucel (hydroxypropylcellulose) (HPC) 94 % of control | dose: 50.0 mg/kg/injection, schedule: Q04DX002 (ip), vehicle: Klucel (hydroxypropylcellulose) (HPC) 90 % of control | [11] 91 % of control

CC(=O)N(c1ccccc1OS(C)(=O)=O)S(C)(=O)=O
inactive: [7] 109 % of control | [8] 100 % of control | [9] 104 % of control
